Results published in ChEMBL document CHEMBL1811778, “The discovery and development of inhibitors of fatty acid amide hydrolase (FAAH)” (Bioorg Med Chem Lett, 2011).

target: T1, Fatty-acid amide hydrolase 1 (Rattus norvegicus, UniProt P97612); assay: Inhibition of rat FAAH assessed as conversion [14]C-oleamide to oleic acid; conditions: not given
T1 sequence (P97612 whole entry): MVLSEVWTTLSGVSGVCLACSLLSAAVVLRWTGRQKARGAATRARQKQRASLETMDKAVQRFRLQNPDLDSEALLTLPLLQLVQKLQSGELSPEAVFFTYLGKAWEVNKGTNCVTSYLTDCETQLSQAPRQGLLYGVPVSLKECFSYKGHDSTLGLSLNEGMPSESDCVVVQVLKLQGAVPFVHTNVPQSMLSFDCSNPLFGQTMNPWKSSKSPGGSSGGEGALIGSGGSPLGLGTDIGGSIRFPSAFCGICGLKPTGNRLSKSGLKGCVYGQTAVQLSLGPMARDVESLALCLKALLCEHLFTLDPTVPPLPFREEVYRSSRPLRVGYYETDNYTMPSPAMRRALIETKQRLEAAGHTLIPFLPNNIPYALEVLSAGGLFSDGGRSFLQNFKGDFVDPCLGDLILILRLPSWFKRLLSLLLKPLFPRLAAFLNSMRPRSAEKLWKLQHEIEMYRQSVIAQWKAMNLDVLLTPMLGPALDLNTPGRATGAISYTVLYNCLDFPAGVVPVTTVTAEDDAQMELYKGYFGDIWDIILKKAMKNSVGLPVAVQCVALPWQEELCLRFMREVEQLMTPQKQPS

Ki [nM] | SMILES
> 100000 | CCCCCCCC/C=C\CCCCCCCC(=O)c1nccn1C
4500 | CCCCCCCC/C=C\CCCCCCCC(=O)C1=NCCO1
7.2 | CCCCCCCC/C=C\CCCCCCCC(=O)c1nc2cnccc2o1
11 | CCCCCCCC/C=C\CCCCCCCC(=O)c1nc2cccnc2o1

target: T2, Fatty-acid amide hydrolase 1 (Homo sapiens, UniProt O00519); assay: Inhibition of FAAH; conditions: not given
T2 sequence (O00519 whole entry): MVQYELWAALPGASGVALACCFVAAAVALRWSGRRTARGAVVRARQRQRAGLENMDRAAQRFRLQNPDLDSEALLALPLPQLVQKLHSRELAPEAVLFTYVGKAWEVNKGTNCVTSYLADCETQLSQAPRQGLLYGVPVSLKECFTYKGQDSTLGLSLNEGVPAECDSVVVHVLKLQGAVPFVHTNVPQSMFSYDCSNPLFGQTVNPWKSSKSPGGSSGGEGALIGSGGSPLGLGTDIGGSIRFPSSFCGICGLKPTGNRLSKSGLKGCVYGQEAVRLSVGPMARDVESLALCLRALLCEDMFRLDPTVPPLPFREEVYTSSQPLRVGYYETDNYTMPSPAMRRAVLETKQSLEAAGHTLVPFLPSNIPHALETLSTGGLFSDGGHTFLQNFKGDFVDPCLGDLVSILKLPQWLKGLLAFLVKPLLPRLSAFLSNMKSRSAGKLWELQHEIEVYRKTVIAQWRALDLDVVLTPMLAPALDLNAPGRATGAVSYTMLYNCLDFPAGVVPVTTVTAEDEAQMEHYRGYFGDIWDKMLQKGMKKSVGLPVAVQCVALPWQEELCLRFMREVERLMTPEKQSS

Ki [nM] | IC50 [nM] | SMILES
40 | – | CCCCCCCC/C=C\CCCCCCC=O
16 | – | CCCCCCCC/C=C\CCCCCCC(=O)C(N)=O
1.4 | – | CCCCCCCC/C=C\CCCCCCC(=O)C(=O)OCC
2 | – | CCCCCCCC/C=C\CCCCCCC(=O)C(F)(F)F
11 | – | CCCCCCCCCCCCCCCCCC(=O)c1nc2ncccc2o1
1.9 | – | CCCCCCCCCCCCCCCC(=O)c1nc2ncccc2o1
1.7 | – | CCCCCCCCCCCCCC(=O)c1nc2ncccc2o1
0.75 | – | CCCCCCCCCC(=O)c1nc2ncccc2o1
2.1 | – | CCCCCCC(=O)c1nc2ncccc2o1
15 | – | CCCCCC(=O)c1nc2ncccc2o1
5.8 | – | O=C(CCCCCCc1ccccc1)c1ncc(-c2cscn2)o1
4.6 | – | O=C(CCCCCCc1ccccc1)c1ncc(-c2cocn2)o1
0.69 | – | CCCCCCCC(=O)c1nc2ncccc2o1
0.57 | – | CCCCCCCCCCCC(=O)c1nc2ncccc2o1

Further lines, the compound ahead of its results:

SMILES | Ki [nM] | IC50 [nM]
O=C(CCCCCCc1ccccc1)c1ncc(-c2cnccn2)o1 | 5.3 | –
CC(=O)c1nc2ncccc2o1 | > 100000 | –
O=C(N1CCN(c2cccc(C(F)(F)F)c2)CC1)n1nnc2ccc(-c3ccc(Cl)cc3)nc21 | – | 2
CN(CCCCCl)C(=O)n1cnc(-c2ccccc2)c1 | – | 78
COc1ccc(N2CCN(C(=O)n3nnc4ccc(N5CCCC5)nc43)CC2)cc1 | – | 1
O=C(N1CCC(Oc2ccc(OCc3cccc(F)c3)cc2)CC1)n1ccnc1 | – | 0.093
O=C(CCCCCCc1ccccc1)c1ncc(-c2cccnn2)o1 | 5.6 | –
O=C(CCCCCCc1ccccc1)c1ncc(-c2ncccn2)o1 | 4.6 | –
CCCCC(=O)c1nc2ncccc2o1 | 50 | –
Cc1ccc2nc(-c3ccc(NC(=O)C4CCN(S(=O)(=O)c5cccs5)CC4)cc3)sc2c1 | – | 18

target: T2, Fatty-acid amide hydrolase 1; assay: Reversible inhibition of human FAAH; conditions: not given

IC50 [nM] | SMILES
10 | CCn1c(=O)n(C2CCCN(c3nccc(-c4cc5ccccc5o4)n3)C2)c2ccccc21 (configuration not stated)
< 100 | CCN(CC)S(=O)(=O)N1CCc2c(ccnc2Nc2cnc3ccccc3c2)C1
1.3 | CCn1ccc2cc(-c3ccc4oc(N5Cc6ccccc6C5)nc4c3)ccc21

system: Rattus norvegicus; assay: In vivo inhibition of rat FAAH at 0.3 mg/kg, ip after 16 hrs; type: functional; conditions: route intraperitoneal

SMILES | inhibition in vivo at 0.3 mg/kg [%]
NC(=O)c1cccc(-c2cccc(OC(=O)NC3CCCCC3)c2)c1 [URB-597] | 70
